# Earlier results, collected in patent EP3357492B1, “MULTILAYER TABLET FOR ADMINISTRATION OF MAGNESIUM” (S.I.I.T. S.r.l.-Servizio Internazionale Imballaggi …, priority 2017, dated 2018).
# Conditions: not given
row,Compound,pH (1% in water solution)
1,O.O.O=C1O[C@H]([C@@H](O)CO)C([O-])=C1O.O=C1O[C@H]([C@@H](O)CO)C([O-])=C1O.[Mg+2] [Ascorbate 2 hydrate],7
2,N[C@@H](CC(=O)O)C(=O)[O-].N[C@@H](CC(=O)O)C(=O)[O-].O.O.O.O.[Mg+2] [Aspartate 4 hydrate],7
3,O=C([O-])[O-].[Na+].[Na+] [Carbonate],10
4,O.O.O.O.O.O.[Cl-].[Cl-].[Mg+2] [Chloride 6 hydrate],5
5,O=C(O)CC(O)(CC(=O)O)C(=O)O [Citrate],4
6,O=C([O-])CC(O)(CC(=O)[O-])C(=O)[O-].O=C([O-])CC(O)(CC(=O)[O-])C(=O)[O-].[Mg+2].[Mg+2].[Mg+2] [Dicitrate],9
7,"[Mg+2].[OH-].[OH-] [Hydroxide, Magnesium hydroxide]",10.5
8,"[O]=[Mg] [Oxide, Magnesium oxide]",10.5
9,O.O.O.O.O.O=P([O-])([O-])[O-].O=P([O-])([O-])[O-].[Mg+2].[Mg+2].[Mg+2] [Phosphate 5 hydrate],8
10,O=C1CC[C@@H](C(=O)[O-])N1.O=C1CC[C@@H](C(=O)[O-])N1.[Mg+2] [Pidolate],6
11,O=C([O-])CC(O)(CC(=O)[O-])C(=O)[O-].[K+].[K+].[K+] [Potassium citrate],7.5
12,CCC(=O)O [Propionate],10
13,Fumarate,7
14,Gluconate,7
15,Glycerophosphate,7
16,Lactate,7
17,Phosphate,6

# Conditions: in water
row,Compound,Solubility (g/100 g water)
1,"[O]=[Mg] [Oxide, Magnesium oxide]",<1 g/100 g water
2,Glycerophosphate,4 g/100 g water
3,Phosphate,40-50 g/100 g water
